Experimental findings from patent US11072625B2 (GLYCOMIMETICS, INC., priority 2016, dated 2021) are described below.

The target in this assay is T1, recombinant human E-selectin/CD63E Fc Chimera (Homo sapiens, UniProt P16581).
T1 construct: purchased R & D systems
T1 sequence (P16581 with tags, fused parts or gaps limits assumed): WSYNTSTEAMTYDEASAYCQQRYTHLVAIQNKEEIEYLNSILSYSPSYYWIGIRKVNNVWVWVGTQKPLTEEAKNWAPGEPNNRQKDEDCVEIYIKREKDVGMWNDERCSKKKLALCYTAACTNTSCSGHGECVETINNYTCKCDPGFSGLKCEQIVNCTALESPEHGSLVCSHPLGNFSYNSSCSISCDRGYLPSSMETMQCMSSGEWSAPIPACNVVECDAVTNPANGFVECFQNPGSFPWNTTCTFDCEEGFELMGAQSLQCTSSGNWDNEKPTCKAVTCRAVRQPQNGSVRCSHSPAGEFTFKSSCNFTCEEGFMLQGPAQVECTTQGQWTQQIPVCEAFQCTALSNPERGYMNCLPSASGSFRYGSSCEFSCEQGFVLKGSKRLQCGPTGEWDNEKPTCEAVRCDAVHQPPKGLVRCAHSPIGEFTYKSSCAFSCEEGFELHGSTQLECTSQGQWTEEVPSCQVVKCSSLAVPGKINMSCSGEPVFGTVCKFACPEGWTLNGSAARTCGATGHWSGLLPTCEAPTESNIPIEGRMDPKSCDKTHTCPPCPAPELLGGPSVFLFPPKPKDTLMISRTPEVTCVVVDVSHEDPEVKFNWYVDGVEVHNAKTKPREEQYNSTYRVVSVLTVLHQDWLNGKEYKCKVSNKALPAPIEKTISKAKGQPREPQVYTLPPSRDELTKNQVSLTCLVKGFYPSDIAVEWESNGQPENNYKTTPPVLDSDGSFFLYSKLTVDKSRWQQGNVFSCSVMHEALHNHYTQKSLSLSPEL
Briefly: E-selectin activity, analysis by SPR (Biacore X100). As to conditions: Biacore X100, CM5 chip, E-selectin Fc chimera captured on anti-human IgG (Fc) antibody. The assay is classed as binding. As for the experimental part: Surface Plasmon Resonance (SPR) measurements were performed on a Biacore X100 instrument (GE Healthcare). A CM5 sensor chip (GE Healthcare) was used for the interaction between E-selectin and GMI compound. Anti-human IgG (Fc) antibody (GE Healthcare) was immobilized onto the chip by amine coupling according to the manufacturer's instructions. In brief, after a 7-min injection (flow rate of 5 μl/min) of 1:1 mixture of N-ethyl-N′-(3-dimethylaminopropyl) carbodiimide hydrochloride and N-hydroxysuccinimide, anti-human IgG (Fc) antibody (25 μg/ml in 10 mM sodium acetate buffer, pH 5.0) was injected using a 6-min injection at 5 μl min. Remaining activated groups were blocked by injecting 1 M ethanolamine/HCl, pH 8.5. The recombinant human E-selectin/CD63E Fc Chimera (50 μg/ml) (R & D systems) was injected into the experimental cell until 6000-7000 RU was captured onto the antibody surface. No recombinant human E-selectin/CD63E was injected into the control cell. Increasing concentrations of GMI compound samples were injected at 30 μl/min into both flow cells and all sensorgrams were recorded against the control. Regeneration of the anti-human IgG (Fc) surface was achieved by injecting 3M magnesium chloride, followed by 50 mM sodium hydroxide. Data were analyzed using Biacore X100 evaluation/BIA evaluation 4.1.1 software (GE Healthcare) and Graphad prism 6 software.
(In general: SPR reads the build-up and loss of mass on a sensor chip optically.)
Consider `CCC1CC(C(=O)NCCNC(=O)CCOCCOCCOCCOCCOCCOCCOCCOCCOCCOCCC(=O)NCCNC(=O)C2CC(CC)C(OC3OC(C)C(O)C(O)C3O)C(OC3OC(CO)C(O)C(OC(CC4CCCCC4)C(=O)N4CCC4)C3NC(C)=O)C2)CC(OC2OC(CO)C(O)C(OC(CC3CCCCC3)C(=O)N3CCC3)C2NC(C)=O)C1OC1OC(C)C(O)C(O)C1O` (centres unmarked) [Compound 20], for which the dissociation constant (Kd) was found to be 0.8 nM. As to `CCC1CC(C(=O)NCCNC(=O)CCOCCOCCOCCOCCOCCOCCC(=O)NCCNC(=O)C2CC(CC)C(OC3OC(C)C(O)C(O)C3O)C(OC3OC(CO)C(O)C(OC(CC4CCCCC4)C(=O)O)C3NC(C)=O)C2)CC(OC2OC(CO)C(O)C(OC(CC3CCCCC3)C(=O)O)C2NC(C)=O)C1OC1OC(C)C(O)C(O)C1O` (centres unmarked) [Compound 16], the dissociation constant Kd is 6 nM. On to `CC[C@H]1C[C@@H](C(=O)NCCNC(=O)c2cn(CC(=O)NCCNC(=O)[C@@H]3C[C@H](CC)[C@@H](O[C@@H]4O[C@@H](C)[C@@H](O)[C@@H](O)[C@@H]4O)[C@H](O[C@@H]4O[C@H](CO)[C@H](O)[C@H](O[C@@H](CC5CCCCC5)C(=O)O)[C@H]4NC(C)=O)C3)nn2)C[C@@H](OC2O[C@H](CO)[C@H](O)[C@H](O[C@@H](CC3CCCCC3)C(=O)O)[C@H]2NC(C)=O)[C@@H]1OC1O[C@@H](C)[C@@H](O)[C@@H](O)[C@@H]1O` (some centres unmarked) [Compound 31], for which the Kd was determined as 3.3 nM. As for `CCC1CC(C(=O)NCCNC(=O)CCOCCOCCOCCOCCOCCOCCOCCOCCOCCOCCC(=O)NCCNC(=O)C2CC(CC)C(OC3OC(C)C(O)C(O)C3O)C(OC3OC(CO)C(O)C(OC(CC4CCCCC4)C(=O)O)C3NC(C)=O)C2)CC(OC2OC(CO)C(O)C(OC(CC3CCCCC3)C(=O)O)C2NC(C)=O)C1OC1OC(C)C(O)C(O)C1O` (centres unmarked) [Compound 15], the Kd worked out at 6 nM.

On to `CC[C@H]1C[C@@H](C(=O)NCCNC(=O)c2cn(CCOCCOCCOCCn3cc(C(=O)NCCNC(=O)[C@@H]4C[C@H](CC)[C@@H](O[C@@H]5O[C@@H](C)[C@@H](O)[C@@H](O)[C@@H]5O)[C@H](O[C@@H]5O[C@H](CO)[C@H](O)[C@H](O[C@@H](CC6CCCCC6)C(=O)O)[C@H]5NC(C)=O)C4)nn3)nn2)C[C@@H](OC2O[C@H](CO)[C@H](O)[C@H](O[C@@H](CC3CCCCC3)C(=O)O)[C@H]2NC(C)=O)[C@@H]1OC1O[C@@H](C)[C@@H](O)[C@@H](O)[C@@H]1O` (some centres unmarked) [Compound 27], for which the Kd was found to be 8.6 nM. As to `CCC1CC(C(=O)NCCNC(=O)CCOCCOCCOCCOCCOCCOCCOCCOCCOCCOCCOCCOCCOCCC(=O)NCCNC(=O)C2CC(CC)C(OC3OC(C)C(O)C(O)C3O)C(OC3OC(CO)C(O)C(OC(CC4CCCCC4)C(=O)O)C3NC(C)=O)C2)CC(OC2OC(CO)C(O)C(OC(CC3CCCCC3)C(=O)O)C2NC(C)=O)C1OC1OC(C)C(O)C(O)C1O` (centres unmarked) [Compound 14], the Kd is 6.6 nM. With `CCC1CC(C(=O)NCCNC(=O)CCOCCOCCOCCOCCC(=O)NCCNC(=O)C2CC(CC)C(OC3OC(C)C(O)C(O)C3O)C(OC3OC(CO)C(O)C(OC(CC4CCCCC4)C(=O)O)C3NC(C)=O)C2)CC(OC2OC(CO)C(O)C(OC(CC3CCCCC3)C(=O)O)C2NC(C)=O)C1OC1OC(C)C(O)C(O)C1O` (centres unmarked) [Compound 17], the Kd came out at 5.1 nM. Take `CC[C@H]1C[C@@H](C(=O)NCCNC(=O)CCC(=O)NCCNC(=O)C2C[C@H](CC)[C@@H](O[C@@H]3O[C@@H](C)[C@@H](O)[C@@H](O)[C@@H]3O)[C@H](O[C@@H]3O[C@H](CO)[C@H](O)[C@H](O[C@@H](CC4CCCCC4)C(=O)O)[C@H]3NC(C)=O)C2)C[C@@H](OC2O[C@H](CO)[C@H](O)[C@H](O[C@@H](CC3CCCCC3)C(=O)O)[C@H]2NC(C)=O)[C@@H]1O[C@@H]1O[C@@H](C)[C@@H](O)[C@@H](O)[C@@H]1O` (some centres unmarked) [Compound 19]: the Kd was 10.2 nM. `CCC1CC(C(=O)NCCNC(=O)CCOCCOCCOCCOCCC(=O)NCCNC(=O)C2CC(CC)C(OC3OC(C)C(O)C(O)C3O)C(OC3OC(CO)C(O)C(OC(CC4CCCCC4)C(=O)N4CCC4)C3NC(C)=O)C2)CC(OC2OC(CO)C(O)C(OC(CC3CCCCC3)C(=O)N3CCC3)C2NC(C)=O)C1OC1OC(C)C(O)C(O)C1O` (centres unmarked) [Compound 23]: the Kd was found to be 2.8 nM. On to `CCC1CC(C(=O)NCCNC(=O)c2cn(CCOCCC(=O)NCCCCC(NC(=O)CCOCCn3cc(C(=O)NCCNC(=O)C4CC(CC)C(OC5OC(C)C(O)C(O)C5O)C(OC5OC(CO)C(O)C(OC(CC6CCCCC6)C(=O)O)C5NC(C)=O)C4)nn3)C(=O)OCc3ccccc3)nn2)CC(OC2OC(CO)C(O)C(OC(CC3CCCCC3)C(=O)O)C2NC(C)=O)C1OC1OC(C)C(O)C(O)C1O` (centres unmarked) [Compound 37], for which the dissociation constant (Kd) stood at 3.9 nM. For the compound `CC[C@H]1C[C@@H](C(=O)NCCNC(=O)NCCNC(=O)[C@@H]2C[C@H](CC)[C@@H](O[C@@H]3O[C@@H](C)[C@@H](O)[C@@H](O)[C@@H]3O)[C@H](O[C@@H]3O[C@H](CO)[C@H](O)[C@H](O[C@@H](CC4CCCCC4)C(=O)O)[C@H]3NC(C)=O)C2)C[C@@H](OC2O[C@H](CO)[C@H](O)[C@H](O[C@@H](CC3CCCCC3)C(=O)O)[C@H]2NC(C)=O)[C@@H]1OC1O[C@@H](C)[C@@H](O)[C@@H](O)[C@@H]1O` (some centres unmarked) [Compound 32], the Kd was 8.8 nM.

Regarding `CCC1CC(C(=O)NCCNC(=O)CCOCCOCCOCCOCCOCCOCCOCCOCCOCCOCCOCCOCCOCCOCCOCCOCCOCCOCCOCCOCCOCCC(=O)NCCNC(=O)C2CC(CC)C(OC3OC(C)C(O)C(O)C3O)C(OC3OC(CO)C(O)C(OC(CC4CCCCC4)C(=O)O)C3NC(C)=O)C2)CC(OC2OC(CO)C(O)C(OC(CC3CCCCC3)C(=O)O)C2NC(C)=O)C1OC1OC(C)C(O)C(O)C1O` (centres unmarked) [Compound 13], the dissociation constant (Kd) turned out to be 4.7 nM. Turning to `CC[C@H]1C[C@@H](C(=O)NCCNC(=O)NCCNC(=O)[C@@H]2C[C@H](CC)[C@@H](O[C@@H]3O[C@@H](C)[C@@H](O)[C@@H](O)[C@@H]3O)[C@H](O[C@@H]3O[C@H](CO)[C@H](O)[C@H](O[C@@H](CC4CCCCC4)C(=O)N4CCC4)[C@H]3NC(C)=O)C2)C[C@@H](OC2O[C@H](CO)[C@H](O)[C@H](O[C@@H](CC3CCCCC3)C(=O)N3CCC3)[C@H]2NC(C)=O)[C@@H]1OC1O[C@@H](C)[C@@H](O)[C@@H](O)[C@@H]1O` (some centres unmarked) [Compound 45], the dissociation constant (Kd) is 2.1 nM. `CCC1CC(C(=O)NCCNC(=O)c2cn(CCOCCOCCn3cc(C(=O)NCCNC(=O)C4CC(CC)C(OC5OC(C)C(O)C(O)C5O)C(OC5OC(CO)C(O)C(OC(CC6CCCCC6)C(=O)O)C5NC(C)=O)C4)nn3)nn2)CC(OC2OC(CO)C(O)C(OC(CC3CCCCC3)C(=O)O)C2NC(C)=O)C1OC1OC(C)C(O)C(O)C1O` (centres unmarked) [Compound 28]: the dissociation constant (Kd) was 3.2 nM. On to `CCC1CC(C(=O)NCCNC(=O)CCOCCOCCC(=O)NCCNC(=O)C2CC(CC)C(OC3OC(C)C(O)C(O)C3O)C(OC3OC(CO)C(O)C(OC(CC4CCCCC4)C(=O)N4CCC4)C3NC(C)=O)C2)CC(OC2OC(CO)C(O)C(OC(CC3CCCCC3)C(=O)N3CCC3)C2NC(C)=O)C1OC1OC(C)C(O)C(O)C1O` (centres unmarked) [Compound 25], for which the dissociation constant Kd is 3 nM. The same measure for `CCC1CC(C(=O)OC)C[C@@H](O[C@@H]2O[C@@H](CO)[C@H](O)C(O[C@@H](CC3CCCCC3)C(=O)N3CCC3)C2NC(C)=O)[C@@H]1O[C@@H]1OC(C)[C@@H](O)[C@H](O)C1O` (some centres unmarked) [Compound 4]: 2600 nM; for `CCC1CC(C(=O)NCCNC(=O)CCOCCOCCC(=O)NCCNC(=O)C2CC(CC)C(OC3OC(C)C(O)C(O)C3O)C(OC3OC(CO)C(O)C(OC(CC4CCCCC4)C(=O)O)C3NC(C)=O)C2)CC(OC2OC(CO)C(O)C(OC(CC3CCCCC3)C(=O)O)C2NC(C)=O)C1OC1OC(C)C(O)C(O)C1O` (centres unmarked) [Compound 18]: 3.5 nM.

The term Kd denotes a measure of binding affinity in units of concentration.
